Measurements from US20240173419A1, “CDK2 DEGRADERS AND USES THEREOF” (Kymera Therapeutics, Inc., priority 2022, published 2024).

Target: T1, CDK2 (Homo sapiens, UniProt P24941)
T1 construct: endogenous in cells; host or cells: MKN1 cells
Test: CDK2 degradation in MKN1 cells (AlphaLISA)
Assay type: cell-based
Parameters: key to CDK2 degradation 14 h: Mean external-Abs DC50 (nM): A (<100 nM); B (≥100-500 nM); C (>500-1000 nM); D (>1000 nM); E (not achieved)
Conditions: 14 h incubation; for DC50: read-out: CDK2 degradation 14 h: Mean external-Abs DC50
Method in brief: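 DC50 from four-parameter logistic fit of AlphaLISA CDK2 signal, corrected for no-cell wells. Lysates came from MKN1 cells, 2e4 per well, exposed 14 h at 37° C to compound at 0.001 nM-10 μM (1:5 series, 11 doses) in 0.1% DMSO.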

| SMILES | CDK2 degradation 14 h: Average Dmax % | DC50 [nM] | CDK2 degradation 14 h: Mean external-Abs DC50 (nM) |
| --- | --- | --- | --- |
| Cc1cc(S(=O)(=O)NC2CCC(F)(CN3CCN(c4ccc(C5CCC(=O)NC5=O)cc4F)CC3)CC2)ccc1Nc1ncc(C(F)(F)F)c(N2CCC[C@](C)(O)C2)n1 (stereo partly shown) [I-815] | A (A (>75% o)) | < 100 | – |
| Cc1cc(S(=O)(=O)C2CC3(CCN(CC4CCN(c5cccc6c5n(C)c(=O)n6C5CCC(=O)NC5=O)CC4)CC3)C2)ccc1Nc1ncc(C(F)(F)F)c(N2CCC(C(C)(C)O)C2)n1 (stereo not shown) [I-841] | A (A (>75% o)) | < 100 | – |
| Cc1cc(S(=O)(=O)N2CC3(CC(OCCN4CCC(c5ccc6c(c5)n(C)c(=O)n6C5CCC(=O)NC5=O)CC4)C3)C2)ccc1Nc1ncc2ccc(=O)n(C3CCCC3)c2n1 (stereo not shown) [I-463] | C (C (>25% -50%)) | – | E |
| Cc1cc(S(=O)(=O)C2CC3(CCN(CC4CCN(c5ccc(NC6CCC(=O)NC6=O)c(Cl)c5)CC4)CC3)C2)ccc1Nc1ncc2cc(Cl)c(=O)n(C3CCCC3)c2n1 (stereo not shown) [I-329] | A (A (>75% o)) | < 100 | – |
| CC1CN(CC2CCN(c3ccc(C4CCC(=O)NC4=O)c(F)c3)CC2)CCC1NS(=O)(=O)c1ccc(Nc2ncc(C(F)(F)F)c(N3CCCC(C)(O)C3)n2)c(F)c1 (stereo not shown) [I-1061] | A (A (>75% o)) | < 100 | – |
| Cc1cc(S(=O)(=O)N2CCC(CN(C)C3CCN(c4cccc5c4n(C)c(=O)n5C4CCC(=O)NC4=O)CC3)CC2)ccc1Nc1ncc2cc(Cl)c(=O)n(C(C)C)c2n1 (stereo not shown) [I-437] | A (A (>75% o)) | < 100 | – |
| Cc1cc(S(=O)(=O)C2CC3(CCN(CC4CCN(c5cccc6c5n(C)c(=O)n6C5CCC(=O)NC5=O)CC4)CC3)C2)ccc1Nc1ncc(C(F)(F)F)c(N2CCCC(C)(O)C2)n1 (stereo not shown) [I-819] | B (B (>50% -75%)) | 500 to 1000 | – |
| Cc1cc(S(=O)(=O)N2CCC(CN(C)C3CCN(c4cccc5c4n(C)c(=O)n5C4CCC(=O)NC4=O)CC3F)CC2)ccc1Nc1ncc2cc(Cl)c(=O)n(C3CCCC3)c2n1 (stereo not shown) [I-823] | A (A (>75% o)) | < 100 | – |
| CC1(O)CCCN(c2nc(Nc3ccc(S(=O)(=O)NC4CCC(CN5CCN(c6ccc(C7CCC(=O)NC7=O)c(F)c6)CC5)CC4)cc3)ncc2C(F)(F)F)C1 (stereo not shown) [I-943] | A (A (>75% o)) | < 100 | – |
| Cc1cc(S(=O)(=O)NCCOCCOCCOCCOCCCc2ccc3c(c2)n(C)c(=O)n3C2CCC(=O)NC2=O)ccc1Nc1ncc2c(C)cc(=O)n(C3CCCC3)c2n1 (stereo not shown) [I-467] | C (C (>25% -50%)) | – | E |
| Cc1cc(S(=O)(=O)NCCOCCOCCOCCCc2ccc3c(c2)n(C)c(=O)n3C2CCC(=O)NC2=O)ccc1Nc1ncc2ccc(=O)n(C3CCCC3)c2n1 (stereo not shown) [I-474] | A (A (>75% o)) | < 100 | – |
| Cc1cc(S(=O)(=O)C2CCN(CCN3CCC(c4cccc5c4n(C)c(=O)n5C4CCC(=O)NC4=O)CC3)CC2)ccc1Nc1ncc2cc(Cl)c(=O)n(C(C)C)c2n1 (stereo not shown) [I-8] | B (B (>50% -75%)) | 100 to 500 | – |
| Cc1cc(S(=O)(=O)C2CCN(C3CC4(CCN(c5cccc6c5n(C)c(=O)n6C5CCC(=O)NC5=O)CC4)C3)CC2)ccc1Nc1ncc2c(n1)N(C1CCCC1)C(=O)C21CC1 (stereo not shown) [I-52] | B (B (>50% -75%)) | 100 to 500 | – |
| Cc1cc(S(=O)(=O)C2CC3(CCN(CC4CCN(c5ccc6c(c5F)n(C)c(=O)n6C5CCC(=O)NC5=O)CC4)CC3)C2)ccc1Nc1ncc2cc(Cl)c(=O)n(C(C)C)c2n1 (stereo not shown) [I-128] | A (A (>75% o)) | < 100 | – |
| Cc1cc(S(=O)(=O)C2CC3(CCN(CC4CCN(c5ccc(OC6CCC(=O)NC6=O)cc5)CC4)CC3)C2)ccc1Nc1ncc2cc(Cl)c(=O)n(C3CCCC3)c2n1 (stereo not shown) [I-73] | A (A (>75% o)) | < 100 | – |
| Cc1cc(S(=O)(=O)NC2CCC(N3CCN(c4ccc(C5CCC(=O)NC5=O)c(Cl)c4)CC3)CC2)ccc1Nc1ncc(C(F)(F)F)c(N2CCCC(C)(O)C2)n1 (stereo not shown) [I-930] | A (A (>75% o)) | < 100 | – |
| CC1(O)CCCN(c2nc(Nc3ccc(S(=O)(=O)NC4CCC(CN5CCN(c6ccc(C7CCC(=O)NC7=O)cc6F)CC5)CC4)cc3Cl)ncc2C(F)(F)F)C1 (stereo not shown) [I-1112] | A (A (>75% o)) | < 100 | – |
| Cc1cc(S(=O)(=O)NC2CC(N3CCN(CC4CCN(c5ccc(NC6CCC(=O)NC6=O)cc5C)CC4)CC3)C2)ccc1Nc1ncc(C(F)(F)F)c(N2CCCC(C)(O)C2)n1 (stereo not shown) [I-712] | B (B (>50% -75%)) | < 100 | – |
| Cc1cc(S(=O)(=O)NC2(C)CCC(CN3CCN(c4ccc(C5CCC(=O)NC5=O)cc4F)CC3)CC2)ccc1Nc1ncc(C(F)(F)F)c(N2CCC[C@](C)(O)C2)n1 (stereo partly shown) [I-814] | A (A (>75% o)) | < 100 | – |
| Cc1cc(S(=O)(=O)N[C@@H](C)CO[C@H]2CC[C@H](CN3CCN(c4ccc5c(c4F)n(C)c(=O)n5C4CCC(=O)NC4=O)CC3)CC2)ccc1Nc1ncc2ccc(=O)n(C3CCCC3)c2n1 (stereo partly shown) [I-828] | A (A (>75% o)) | < 100 | – |
| Cc1cc(S(=O)(=O)NC2CC(N3CCC4(CC3)CN(Cc3cccc5c3n(C)c(=O)n5C3CCC(=O)NC3=O)C4)C2)ccc1Nc1ncc(C(F)(F)F)c(N2CCCC(C)(O)C2)n1 (stereo not shown) [I-697] | A (A (>75% o)) | 100 to 500 | – |
| Cc1cc(S(=O)(=O)C2CCC(CN(C)C3CCN(c4cccc5c4n(C)c(=O)n5C4CCC(=O)NC4=O)CC3)CC2)ccc1Nc1ncc(C(F)(F)F)c(-c2cnn(C)c2)n1 (stereo not shown) [I-46] | A (A (>75% o)) | < 100 | – |
| Cc1cc(S(=O)(=O)NCCO[C@H]2CC[C@H](CN3CCN(c4ccc5c(c4)n(C)c(=O)n5C4CCC(=O)NC4=O)CC3)CC2)ccc1Nc1ncc2cc(Cl)c(=O)n(C3CCCC3)c2n1 (stereo partly shown) [I-432] | A (A (>75% o)) | < 100 | – |
| Cc1cc(S(=O)(=O)NC2CC(N3CCN(CC4CCN(c5cccc6c5n(C)c(=O)n6C5CCC(=O)NC5=O)CC4)CC3)C2)ccc1Nc1ncc(C(F)(F)F)c(N2CCCCC2)n1 (stereo not shown) [I-795] | A (A (>75% o)) | < 100 | – |
| Cc1cc(S(=O)(=O)C2CC3(CCN(CC4CCN(c5ccc6c(c5F)n(C)c(=O)n6C5CCC(=O)NC5=O)CC4)CC3)C2)ccc1Nc1ncc2c(n1)N(C1CCCC(O)C1)C(=O)C21CC1 (stereo not shown) [I-609] | A (A (>75% o)) | < 100 | – |
| Cc1cc(S(=O)(=O)C2CC3(CCN(CC4CCN(c5ccc6c(c5F)n(C)c(=O)n6C5CCC(=O)NC5=O)CC4)CC3)C2)ccc1Nc1ncc(C(F)(F)F)c(N2CCCC(O)(C(F)F)C2)n1 (stereo not shown) [I-507] | B (B (>50% -75%)) | < 100 | – |
| CC1CC(NS(=O)(=O)c2ccc(Nc3ncc(C(F)(F)F)c(N4CCCC(C)(O)C4)n3)c(F)c2)CCN1CC1CCN(c2ccc(C3CCC(=O)NC3=O)c(F)c2)CC1 (stereo not shown) [I-1060] | A (A (>75% o)) | < 100 | – |
| Cc1cc(S(=O)(=O)NCCCCC2CCN(c3ccc(N4CCC(=O)NC4=O)cc3)CC2)ccc1Nc1ncc2cc(Cl)c(=O)n(C3CCCC3)c2n1 [I-411] | C (C (>25% -50%)) | > 1000 | – |
| Cc1cc(S(=O)(=O)NCCCN(C)C2CCN(c3cccc4c3n(C)c(=O)n4C3CCC(=O)NC3=O)CC2)ccc1Nc1ncc2cc(Cl)c(=O)n(C3CCCC3)c2n1 (stereo not shown) [I-420] | A (A (>75% o)) | < 100 | – |
